Experimental data: patent US20040048260A1, “Transfection of nucleic acid” (priority 2002, published 2004)

Columns and labels:
HeLa cells [1] = test: Transfection of HeLa cells with EGFP plasmid on coated 96-well plates; assay type: cell-based; conditions: 24 hr
From the text: The coated plates prepared in Example 1 were used to transfect HeLa cells with an expression plasmid encoding Enhanced Green Fluorescent Protein (EGFP; purchased from Clontech, Inc., Palo Alto, Calif.). […] Before transfection, 1×10^6 HeLa cells were harvested and resuspended in 5 milliliters of the complete medium described in Example 1. 1 microgram of the EGFP plasmid was mixed with the cells. The mixture was subsequently placed into the coated plates (about 5,000 cells per well). After the cells had grown on the plates for 24 hr, pictures were taken under a fluorescent microscope.
Standard 96-well plates were coated with polyethylenimine […], a cationic polymer. More specifically, PEI (MW 25,000 Daltons) was purchased from Sigma-Aldrich (St. Louis, Mo.) and dissolved in deionized water to reach a concentration of 10 mg/ml. Each PEI solution was passed through a 0.45-micrometer filter membrane. This filtrate was used as the PEI stock solution and stored at 4° C. To coat the plates, the stock solution was diluted with sterile deionized water to 20 microgram/ml and a 10-microliter aliquot was added to each well of 96-well plates. The plates were dried and stored in the manner as described in Example 1.
To conduct transfection, HeLa cells were mixed with the EGFP plasmid in the complete medium described in Example 1 and placed onto the PEI-coated plates. […]

[2] = Stability of DOTAP coating on 96-well plates under complete medium, examined by microscope; assay type: physicochemical
Method: (§1) Standard 96-well plates were coated with 1,2 bis(oleoyloxy)-3-(trimethylammonio)propane (DOTAP; purchased from Avanti, Alabaster, Ala.), a cationic lipid. More specifically, 50-microliter aliquots of 2.5 nM, 5 nM, 10 nM, 40 nM, 60 nM, and 80 nM DOTAP methanolic solutions were added to the wells of six sets of the 96-well plates respectively. The plates were then dried overnight in a vacuum-drier and stored in a dessicator until use.
In one experiment, 100 microliters of a complete medium (i.e., RPMI medium containing 10% fetal calf serum, 50 units ml^−1 penicillin, and 50 micrograms ml^−1 streptomycin) was added to each well of the coated plates. The coated surfaces and the overlaying medium were then examined under a microscope at 6-hr intervals for 24 hr.

HeLa cells [3] = test: Transfection of HeLa cells with EGFP plasmid on glass slides tethered with DOTAP or PEI; assay type: cell-based; conditions: HeLa cells on glass slides printed with gelatin or chitosan and tethered coating, 24 hours
Method: Glass slides were tethered with DOTAP or PEI and used to transfect HeLa cells.
More specifically, borosilicate glass slides (VWR Scientific, Media, Pa.) were cleaned with Linbro 7× detergent (ICN Biomedicals, Inc., Aurora, Ohio), diluted 1:3 (v/v) in deionized water, and baked at 450° C. for 4 hr. The slides were then printed with gelatin or chitosan by microcontact printing using polydimethylsiloxane (PDMS; Sylgard 184; Dow Corning, Midland, Mich.) elastomer stamps. See Kam L. et al., J Biomed Mater Res. 55: 487-495 (2001). One milliliter of 10 nM DOTAP solution and 20 microgram/ml PEI solutions were respectively overlaid onto two set of slides for one minute. The slides were then briefly rinsed with Dulbecco's modified Eagle's medium (DMEM; Gibco BRL, Great Island, N.Y.) before use.
HeLa cells were mixed with the EGFP plasmid and seeded onto slides that were placed in 100 mm cell culture dishes containing the above-mentioned complete medium.

[4] = test system: fluorescent-labeled oligonucleotide; test: Capture of fluorescent-labeled oligonucleotide by coated plates (fluorescent microscope); assay type: binding; conditions: 0.1 microgram oligonucleotide per well in 100 microliters complete medium
Method: as §1
In another experiment, 0.1 microgram of fluorescent-labeled oligonucleotide was added to each well of the coated plates containing 100 microliters of the above-mentioned medium. The plates were then observed under a fluorescent microscope. The fluorescence was detected only on the coated surfaces but not in the medium.

## CCCCCCCC/C=C\CCCCCCCC(=O)OCC(C[N+](C)(C)C)OC(=O)CCCCCCC/C=C\CCCCCCCC (stereo not drawn) [DOTAP, 1,2 bis(oleoyloxy)-3-(trimethylammonio)propane]
HeLa cells [1]; HeLa cells, microscopic views
  cell shape / spreading on the coated plates: spread unexpectedly well
HeLa cells [1]; coated 96-well plates, fluorescent microscope, PEI density greater than 0.3 microgram/cm^2
  cells expressing GFP / transfected (of total HeLa cells): more than 80%
[2]; complete medium, 24 hr, all plates
  liposome-like particles on the coated surfaces or in the medium: no liposome-like particles were found
[2]; plates coated with 2.5-80 nM DOTAP solutions, examined at 6-hr intervals for 24 hr
  change of coated surfaces under complete medium: no difference
HeLa cells [3]
  cells found to express GFP: 80%
[4]
  capture of nucleic acid (location of fluorescence): effectively capture nucleic acid
